Laboratory results published in PubChem BioAssay AID651989 (The Scripps Research Institute Molecular Screening Center, 2013).
Active and inactive are the calls of the source. How the calls were made is not given here.

target: methionyl-tRNA synthetase (Trypanosoma brucei brucei) (UniProt Q38C91); test: inhibition of trypanosome methionyl-tRNA synthetase – biochemical, fluorescence polarization, orthogonal assay for T. brucei MetRS inhibitor project, dose response (AID 651989)
Sequence (Q38C91 1-773): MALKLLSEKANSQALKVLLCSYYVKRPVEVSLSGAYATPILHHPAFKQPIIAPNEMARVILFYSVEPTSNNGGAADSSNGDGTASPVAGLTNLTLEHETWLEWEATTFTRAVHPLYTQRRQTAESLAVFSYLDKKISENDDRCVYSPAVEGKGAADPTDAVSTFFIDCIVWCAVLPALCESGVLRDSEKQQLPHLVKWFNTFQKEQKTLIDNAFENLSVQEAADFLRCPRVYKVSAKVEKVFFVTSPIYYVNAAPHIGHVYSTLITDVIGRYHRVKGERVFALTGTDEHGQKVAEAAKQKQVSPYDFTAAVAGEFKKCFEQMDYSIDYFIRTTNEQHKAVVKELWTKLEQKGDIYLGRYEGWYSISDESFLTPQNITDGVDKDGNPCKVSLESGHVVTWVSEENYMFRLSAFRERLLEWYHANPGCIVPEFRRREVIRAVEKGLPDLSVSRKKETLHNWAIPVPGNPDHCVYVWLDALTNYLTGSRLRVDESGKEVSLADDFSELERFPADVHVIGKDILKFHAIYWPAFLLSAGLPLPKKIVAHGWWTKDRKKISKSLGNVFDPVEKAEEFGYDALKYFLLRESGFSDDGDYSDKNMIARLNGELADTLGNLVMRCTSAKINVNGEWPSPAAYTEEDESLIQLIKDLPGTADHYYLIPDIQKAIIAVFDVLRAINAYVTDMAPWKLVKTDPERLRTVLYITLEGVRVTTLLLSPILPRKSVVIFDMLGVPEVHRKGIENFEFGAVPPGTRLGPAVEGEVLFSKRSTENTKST

SMILES | IC50
Cc1cc2c(c(=O)n1CC1CCCO1)C(c1ccc3c(c1)OCO3)C(C#N)=C(N)O2 (stereo not drawn) | > 119 µM (inactive)
COc1ccc(NC(=O)COC(=O)CCCOc2ccc(Cl)cc2Cl)cc1 | > 119 µM (inactive)
CO/N=C(\c1nonc1N)N1CCN(c2ccc(Cl)cc2[N+](=O)[O-])CC1 | > 119 µM (inactive)
O=C(Cc1ccc(Br)cc1)NNC(=O)Nc1ccc(Cl)cc1 | > 119 µM (inactive)
COc1ccc(CC(=O)OCC(=O)Nc2ccc(Br)cc2)cc1 | > 119 µM (inactive)
Cc1cc(Cl)ccc1OCCCC(=O)NNC(=O)c1ccccc1O | > 119 µM (inactive)

Results, then the compound that gave them:

IC50 | SMILES
> 119 µM (inactive) | COc1cc(OC)c(OC)cc1/C=N/Nc1nc2ccccc2[nH]1
> 119 µM (inactive) | Cc1ccc(C(=O)Nn2c(O)c(C=C3N=c4ccccc4=N3)sc2=S)cc1
> 119 µM (inactive) | O=C(NCc1cc(Br)cc(Br)c1OC(=O)c1ccccc1[N+](=O)[O-])c1ccccc1
inactive | Clc1ccccc1-c1ccc2ncnc(NCc3ccc4c(c3)OCO4)c2c1
> 119 µM (inactive) | N#Cc1ccccc1CSc1nc2ncc(Br)cc2[nH]1
> 119 µM (inactive) | N#Cc1ccccc1CSc1ccc(-c2nc3ccccc3[nH]2)cn1
> 119 µM (inactive) | O=C(OCC(=O)c1c[nH]c2ccccc12)c1ccc(OC(F)F)cc1
